Results on four compounds are retold here after patent US9962384B1, “Levosimendan compound for preventing or treating tau-related diseases” (KOREA INSTITUTE OF SCIENCE AND TECHNOLOGY, priority 2017, dated 2018).

One may read the IC50 as the point on the concentration scale where inhibition reaches its midpoint.

SMILES strings stand for the structures.

The subject of one series is tau-BiFC cells. Description: Cell viability by cell nucleus staining with Hoechst. The class given is cell-based. Particulars: forskolin 30 μM; for cytotoxicity / cell viability (number of nuclei stained with Hoechst): 10 μM compound, 48 hours. Here is the method: (§1) To screen a new tau aggregation inhibitor, tau-BiFC cell model making it possible to easily observe tau oligomer formation in living cells was treated an FDA-approved drug library (a total of 1018 compounds). As shown in a schematic view of FIG. 1, tau-BiFC cells were plated on a 384-well plate. On the next day, the tau-BiFC cells were treated with FDA-approved drugs (treatment concentration: 10 μM) together with the compound forskolin (treatment concentration: 30 μM) that activates tau kinase PKA to induce tau aggregation. After 46 hours, the tau aggregation inhibitory activities of the drugs were analyzed, and cell viability by the compounds was analyzed by cell nucleus staining with Hoechst. […] To further confirm the tau aggregation inhibitory activity of the selected levosimendan, tau-BiFC cells were treated with DMSO, MB or levosimendan (treatment concentration: 10 μM) together with the compound forskolin (treatment concentration: 30 μM) that activates tau kinase PKA to induce tau aggregation. At this time, methylene blue (MB) known to show tau aggregation inhibitory activity was used as a comparative compound (positive control). After 48 hours, the tau aggregation inhibitory activity of the compound was analyzed, and cell viability by the compound was analyzed by cell nucleus staining with Hoechst.
Furthermore, it could be seen that the fluorescence value of the test group (levosimendan) decreased, similar to that of the positive control group (MB).
(§2) In addition, in order to further confirm the tau aggregation inhibitory activity of the selected levosimendan compound in living cells, tau-BiFC cells were treated with the tau inducer forskolin (treatment concentration: 30 μM) together with 1, 3, 10, 30 or 100 μM of the levosimendan compound. After 48 hours, tau aggregation reactions in the cells were analyzed by analysis of tau-BiFC response, and cell viability was analyzed to determine the toxicity of the compound.

In series [1] the target is T1, tau (Homo sapiens, UniProt P10636). In words: Tau phosphorylation by Western blot of tau-BiFC cell lysates. In kind it is cell-based. Details: fused on or other part: N-terminal and C-terminal non-fluorescent fragments of Venus fused to tau (BiFC reporter handles). The note with it: forskolin 30 μM, 36 hours. Here is the method:
In order to confirm whether the levosimendan compound would show tau aggregation inhibitory activity by inhibiting tau phosphorylation, Tau-BiFC cells were treated with the tau aggregation inducer forskolin (treatment concentration: 30 μM) and the levosimendan compound (treatment concentration: 15 μM). After 36 hours, the tau-BiFC cell lysates were analyzed by Western blot analysis to measure tau phosphorylation.
On the technique in general: In western blotting, separated proteins are transferred to a membrane and probed.

The target of series [2] is T1, tau. In words: Intracellular tau aggregation in tau-BiFC cell model (forskolin-induced). In kind it is cell-based. Details: fused on or other part: N-terminal and C-terminal non-fluorescent fragments of Venus fused to tau (BiFC reporter handles). The note with it: forskolin 30 μM; for concentration dependence of tau-BiFC fluorescence value: 1-100 μM; for tau aggregation in tau-BiFC cells (Example 5, metabolites comparison): varying concentrations. Here is the method: Furthermore, the following examples were performed based on tau-BiFC cell model. The tau-BiFC cell model is a reliable system for monitoring the interaction between tau oligomers, and is a Venus protein-based BiFC method in which the N-terminal and C-terminal non-fluorescent fragments of Venus protein are fused to tau. A further detailed definition and method for the tau-BiFC cell model are as described in Korean Patent No. 10-1546485.
as §1, §2
The levosimendan compound has two metabolite forms ([…] and activated (OR-1896)). […] Specifically, tau-BiFC cells were treated with varying concentrations of each of MB, levosimendan, OR-1855 and OR-1896 compounds together with the tau aggregation inducer forskolin (treatment concentration: 30 μM). After 48 hours, the extent of tau aggregation in the cells was analyzed.

In the next series the test system is tau kinase. In words: Tau kinase activity.
The subject of series [3] is mouse cerebral cortical neuronal cells. Description: Neuronal cell protection against TauK18P301L damage. In kind it is cell-based. Particulars: 10 μM, 2 hours before TauK18P301L 20 μg/mL; E18, DIV8. The text has this: Whether the levosimendan compound would protect neuronal cells from neuronal cell damage was examined.
Another series deals with tau aggregates (Homo sapiens, UniProt P10636). In words: In vitro dissociation of tau aggregates. The note with it: Tau-Agg+100 uM DTT+0.1 mg/mL Heparin, 37° C., varying concentrations. The class given is biochemical. Here is the method:
(§3) Thus, whether the levosimendan compound would be involved in the tau aggregation process to inhibit tau aggregation was examined. Specifically, whether the levosimendan compound would inhibit the tau aggregation process was analyzed in vitro, and whether the levosimendan compound would prevent additional aggregation of aggregated tau and dissociate the aggregation was analyzed in vitro. The tau aggregation process (Tau pre-Agg+100 uM DTT+0.1 mg/mL Heparin, incubated at 37° C.) in vitro was treated with varying concentrations of the levosimendan compound, and the degree of tau aggregation was analyzed with ThS (Thioflavin S). The ThS is a dye capable of measuring tau aggregation in vitro in real time, and is used as a fluorescence probe that detects β-sheet aggregation.

Series [4] has as its target T1, tau. Description: In vitro tau aggregation with ThS (Thioflavin S). In kind it is biochemical. The note with it: Tau pre-Agg+100 uM DTT+0.1 mg/mL Heparin, 37° C. Here is the method: as §3
[5] abbreviates: 15 μM, vs forskolin-treated cells.

T1 sequence (P10636 1-441 isoform P10636-8): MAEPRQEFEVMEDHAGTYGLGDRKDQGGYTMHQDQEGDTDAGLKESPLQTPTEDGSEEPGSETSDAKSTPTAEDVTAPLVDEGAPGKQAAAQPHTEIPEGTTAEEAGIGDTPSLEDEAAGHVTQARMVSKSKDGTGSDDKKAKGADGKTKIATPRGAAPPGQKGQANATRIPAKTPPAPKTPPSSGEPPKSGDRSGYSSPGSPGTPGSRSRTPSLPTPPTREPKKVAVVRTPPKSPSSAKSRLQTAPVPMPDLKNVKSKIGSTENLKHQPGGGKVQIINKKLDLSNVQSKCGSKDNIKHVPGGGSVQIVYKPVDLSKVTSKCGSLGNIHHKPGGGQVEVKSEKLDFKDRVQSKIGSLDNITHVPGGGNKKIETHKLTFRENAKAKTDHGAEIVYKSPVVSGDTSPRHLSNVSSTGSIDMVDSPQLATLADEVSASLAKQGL
Chain of tau aggregates (P10636 1-441 isoform P10636-8): as above

On to `CN(C)c1ccc2nc3ccc(=[N+](C)C)cc-3sc2c1` [MB, methylene blue], for which the “cytotoxicity / cell viability (number of nuclei stained with Hoechst)” value in the series on tau-BiFC cells is listed as “decreased”; in the series on tau-BiFC cells (listed as methylene blue), “cytotoxicity higher than that of the levosimendan compound”. Moreover, at tau [1], the “tau phosphorylation compared to forskolin-treated cells” value is recorded as “decreased compared to that in the forskolin-treated cells”. For the same compound, at tau [2] (48 hours), the “concentration dependence of tau-BiFC fluorescence value” is “concentration-dependent decrease in the fluorescence value”.
For `C[C@@H]1CC(=O)NN=C1c1ccc(N)cc1` [OR-1855], the “tau aggregation in tau-BiFC cells (Example 5, metabolites comparison)” value on tau [2] (48 hours) is “did not show tau aggregation inhibitory activity”.
Same read-out and setting: in the case of `CC(=O)Nc1ccc(C2=NNC(=O)C[C@H]2C)cc1` [OR-1896] it was “did not show tau aggregation inhibitory activity”.
In the case of `C[C@@H]1CC(=O)NN=C1c1ccc(NN=C(C#N)C#N)cc1` [levosimendan], in the series on tau kinase, the “changes in tau kinase activity” value is given as “did not affect changes in tau kinase activity”. The “cell viability in drug library screening” value in the series on tau-BiFC cells (10 μM, 46 hours) is reported as “cell viability equal to that of drug-untreated normal cells”. Also, at tau [1] (setting [5]), the “tau phosphorylation decrease at Ser199” value is “about 34%” and the “tau phosphorylation decrease at Ser396” value is recorded as “about 35%”. At tau [1], the “tau phosphorylation compared to forskolin-treated cells” value was “decreased compared to that in the forskolin-treated cells”. Moreover, the “damage to neuronal cells, neuronal cell morphology and neurite length” value in series [3] was “decreased compared to that in the negative control group (DMSO) and the positive control group (MB)”. Besides, the “effect on tau aggregates in vitro” value on tau aggregates is “had the effect of dissociating tau aggregates”. Besides, at tau [4], the IC50 turned out to be 4.71 µM. Also, the “tau-BiFC fluorescence value (RFU), tau aggregation inhibitory activity” value at tau [2] (10 μM compound, 48 hours) is “decreased compared to that of the negative control group (DMSO)”. Besides, the “tau aggregation inhibitory activity in drug library screening” value at tau [2] (10 μM, 46 hours, 384-well plate) is on record as “tau aggregation inhibitory activity equal to that of methylene blue (MB)”. Besides, on tau [2] (48 hours), the “concentration dependence of tau-BiFC fluorescence value” is recorded as “concentration-dependent decrease in the fluorescence value” and the “tau aggregation in tau-BiFC cells (Example 5, metabolites comparison)” value is “decreased similar to that in the positive control group (MB)”. In addition, on tau [2] (1, 3, 10, 30 or 100 μM compound, 48 hours, read-out: IC50 of decrease in tau-BiFC fluorescence value), the IC50 worked out at 2.2 µM.
